{"source": "patent US20250326785A1", "about": "“SODIUM SALT AND ETHANOLAMINE SALT OF 23-HYDROXYTORMENTIC ACID” (HUYABIO International, LLC, priority 2024, published 2025)", "key": {"[1]": {"test": "Solubility in water (temperature dependence)", "format": "physicochemical", "experimental": "Sodium salt of Pattern 5 was prepared using inverse solubility, with dissolution of HBI-3808 free acid in water at low temperature, and heating to reach super saturation, followed by anti-solvent addition. The solids isolated from this process were consistent with sodium salt of pattern 15, which can be converted to sodium salt of pattern 5 via drying under vacuum with exposure to elevated humidity (and the conversion proceeds via sodium salt of pattern 2 as an intermediate)."}, "[2]": {"system": "Adult rats (Sprague Dawley) with MI by LAD ligation", "test": "Rat myocardial infarction model: pressure-volume catheter measurement", "format": "in vivo", "excerpt": "(§1) Animal Model and Myocardial Infarction: Adult rats (Sprague Dawley (SD), body weight, -250 g) were used to generate a model with MI by LAD ligation of the heart as described in the previous study (Chongyu Zhang, Meng-Hsuan Hsieh, Song-Yi Wu, Shu-Hong Li, Jun Wu, Shi-Ming Liu, Hao-Ji Wei, Richard D. Weisel, Hsing-Wen Sung, Ren-Ke Li, “A self-doping conductive polymer hydrogel that can restore electrical impulse propagation at myocardial infarct to prevent cardiac arrhythmia and preserve ventricular function,” Biomaterials, Volume 231, 2020, 119672, ISSN 0142-9612). In brief, each rat was pre-medicated with 5% isoflurane in a chamber.\n(§2) The selected rats having similar FS were randomly divided into 6 groups: (1) Negative control group (treated with 40% SBCD); (2) Positive control group (with HBI-3802, 2 mg/kg /day); (3) Dose 1 (HBI-3808 2 mg/kg/day); (4) Dose 2 (HBI-3808 0.64 mg/kg day); (5) Dose 3 (HBI-3808 0.2 mg/kg/day); and (6) Sham control (No myocardial infarction and treated with 40% SBCD).\n(§3) Oral Treatment: Six days after permanent LAD ligation, the selected rats received the first daily treatment. HBI-3808 (at 1 of the 3 doses) or 3802 at 2 mg/kg/day (1 ml/rat/day) delivered by gastric gavage daily for 14 days (2). 40% SB-CD alone (1 ml/rat/day) was similarly administered to rats in the control and sham groups.\nPressure-Volume Measurement: End-point functional and morphological assessments were performed at 21 days after first treatment (27 days post myocardial infarction). Each rat was anesthetized as described above (Myocardial Infarction), and ventilated. The sternotomy was performed, and a calibrated Millar conductance pressure-volume catheter (Millar Instruments, USA) was inserted into the LV cavity through the apex. Pressure and volume data were collected with the Millar software. Parallel conductance was evaluated after the injection of hypertonic saline solution into the right jugular vein, with the volume measurements corrected for the parallel conductance. To analyze the LV pressure and volume relationship, pressure and volume data were acquired, and real-time pressure-volume loops were constructed. Stroke work (SW) and dP/dt max (indices of systolic function) and dP/dt min and Tau_w (index of diastolic function) as well as LV volumes were compared between the groups."}, "[3]": {"system": "Adult rats (Sprague Dawley) with MI by LAD ligation", "test": "Rat myocardial infarction model: morphological studies (scar area and thickness, computed planimetry)", "format": "in vivo", "settings": "for scar areas: p<0.05 and 0.01 respectively", "excerpt": "as §1, §2\nMorphological Studies: After cardiac functional measurements, the animals were euthanized. The hearts were rapidly excised, fixed with 10% formaldehyde for 7 days, sliced into 2 mm thick slices, and photographed.\nCross-sectional areas of the left ventricular free wall (LVFW) and scar tissue were measured using computed planimetry. Surface areas of the epicardial LVFW and scar tissue were measured as the sum of the epicardial length multiplied by the slice thickness (2 mm). The surface area percentage of scar tissue in the LVFW was calculated as follows: [(epicardial scar area)/(epicardial LVFW area)×100]. The thickness of scar area was presented as an average of wall thickness measured at the middle and at each edge of the scar from the slice having the thinnest scar."}, "[4]": {"system": "Adult rats (Sprague Dawley) with MI by LAD ligation", "test": "Rat myocardial infarction model: cardiac function by echocardiography", "format": "in vivo", "excerpt": "as §1\nThe heart was then exposed through a left anterolateral thoracotomy incision. […] Sham animals was treated identically except that the suture was passed through the myocardium beneath the LAD without ligation. The incision was then closed in layers using 3-0 Vicryl suture and 3-0 silk for the skin. Post-surgery treatment followed per UHN ARC requirement with antibiotics (Duplocillin LA, 15,000 IU/kg, I.M.) and analgesics (Buprenorphrine, 0.03 mg/Kg, SC), and the animals recovered from anesthesia in a warmed environment, under continuous monitoring and care for 1-2 hours.\nas §2\nTreatments: The rats were treated by gastric gavage daily starting 6 days after MI for 2 weeks (Turner PV, Vaughn E, Sunohara-Neilson J, Ovari J, Leri F, “Oral gavage in rats: animal welfare evaluation,” J. Am. Assoc. Lab. Anim. Sci., 2012 Jan; 51(1): pp. 25-30. PMID: 22330864; PMCID: PMC3276962) as described in Table 18. The same volume of vehicle (1 mL/rat/day) was given to the rats in sham control group. Ten rats were studied in each group (N=10/group). The schematic plan is depicted in FIG. 35.\nas §3\nMeasurement of Cardiac Function: Cardiac function was evaluated by echocardiography prior to LAD ligation, prior to treatment (6 days post myocardial infarction), and at 7- and 21-days post first treatment (13 and 27 days post myocardial infarction). The end-point cardiac function was also evaluated using a pressure-volume catheter on Day 21 after first treatment (27 days post myocardial infarction).\nEchocardiography: Each rat was pre-medicated with isoflurane in a chamber, and anesthesia was maintained during measurement with 2.5% isoflurane delivered using a nose cone. Echocardiographic examinations were performed using a GE Vivid-7 System with a 10S transducer. Depth was set at 2 cm. Short-axis views were obtained using the parasternal approach.\nLeft ventricular (LV) dimensions [end-diastolic dimension (LVEDD) and end-systolic dimension (LVESD)] from M mode at short axis views of the mid-level LV. Fractional shortening (% FS) was calculated using the equation: [(LVEDD−LVESD)/LVEDD]×100. Ejection fraction (% EF) was calculated using the equation: [(LVEDD^3−LVESD^3)/LVEDD^3]×100."}, "[5]": {"settings": "0.2 mg/kg/day, vs control at 21 days after treatment, p<0.01"}, "[6]": {"settings": "2 mg/kg/day, vs 2 mg/kg HBI-3802, 0.64 and 0.2 mg/kg HBI-3808 and control, p<0.05 and 0.01"}, "[7]": {"settings": "0.2 mg/kg/day, control vs treated"}, "[8]": {"settings": "0.64 mg/kg/day, control vs treated"}, "[9]": {"settings": "0.64 mg/kg/day, compared to 0.2 mg/kg HBI-3808, p<0.02"}, "[10]": {"settings": "2 mg/kg/day, 21 days after treatment, p<0.01"}}, "note": "Entries after “also recorded” stand apart in the source; their conditions may differ."}
{"smiles": "CC1CCC2(C(=O)[O-])CCC3(C)C(=CCC4C5(C)CC(O)C(O)C(C)(CO)C5CCC43C)C2C1(C)O.[Na+]", "note": "(stereo not shown) [HBI-3808 sodium salt of Pattern 5, sodium salt of 23-hydroxytormentic acid]", "values": [{"measurement": "solubility in water versus temperature", "setting": "[1]", "value": "inverse solubility in water"}]}
{"smiles": "C[C@@H]1CC[C@]2(C(=O)O)CC[C@]3(C)C(=CCC4[C@@]5(C)C[C@@H](O)[C@H](O)[C@@](C)(CO)C5CC[C@]43C)C2[C@]1(C)O", "note": "(stereo partly shown) [HBI-3808, 23-hydroxytormentic acid]", "values": [{"measurement": "cardiac diastolic function", "setting": "[2]; [5]", "value": "better cardiac diastolic function compared with control group"}, {"measurement": "cardiac systolic function", "setting": "[2]; 0.2 mg/kg/day, vs control at 21 days after treatment, p<0.05", "value": "better cardiac systolic function compared with control group"}, {"measurement": "left ventricular end systolic volumes (ESV)", "setting": "[2]; 0.2 mg/kg/day, vs control, p<0.02", "value": "significantly smaller"}, {"measurement": "Left ventricular end diastolic volumes (EDV)", "setting": "[2]; 0.64 mg/kg/day, vs 0.2 mg/kg group, p<0.01", "value": "significantly smaller"}, {"measurement": "stroke work (SW) and dP/dt max (indices of systolic function)", "setting": "[2]; 2 mg/kg/day, 21 days after treatment, vs 2 mg/kg HBI-3802, 0.64 and 0.2 mg/kg HBI-3808 and control, p<0.01", "value": "significantly greater"}, {"measurement": "end diastolic volumes compared with non-infarcted sham animals", "setting": "[2]; 2 mg/kg/day, Day 21", "value": "the same; also recorded: equivalent to non-infarcted sham animals"}, {"measurement": "dP/dt min and Tau_w (index of diastolic function)", "setting": "[2]; [6]", "value": "also improved"}, {"measurement": "left ventricular end systolic volumes (ESV)", "setting": "[2]; [6]", "value": "smaller"}, {"measurement": "Left ventricular end diastolic volumes (EDV)", "setting": "[2]; 2 mg/kg/day, vs 0.64 and 0.2 mg/kg HBI-3808 and control, p<0.01", "value": "smaller"}, {"measurement": "scar thickness", "setting": "[3]; [7]", "value": "thinner in the control group"}, {"measurement": "scar areas", "setting": "[3]; [7]", "value": "larger in the control group"}, {"measurement": "scar thickness", "setting": "[3]; [8]", "value": "thinner in the control group"}, {"measurement": "scar areas", "setting": "[3]; [8]", "value": "larger in the control group"}, {"measurement": "scar thickness", "setting": "[3]; 2 mg/kg/day, 21 days after first treatment", "value": "thinner in the control group"}, {"measurement": "scar (infarct) areas", "setting": "[3]; 2 mg/kg/day, 21 days after first treatment, p<0.01", "value": "smaller infarct areas than the 2 mg/kg HBI-3802 group"}, {"measurement": "difference of cardiac function (EF) Days 27 vs 6 post infarction", "setting": "[4]; 0.16 mg of HBI-3808", "value": "showed improvement in cardiac function compared with Day 6"}, {"measurement": "difference of cardiac function (EF) Days 27 vs 6 post infarction", "setting": "[4]; 0.2 mg/kg/day", "value": "prevented further deterioration of cardiac dysfunction"}, {"measurement": "Left ventricular end systolic dimension (LVESD)", "setting": "[4]; [5]", "value": "smaller LVESD compared with control group"}, {"measurement": "Ejection fraction (EF) / cardiac function", "setting": "[4]; 0.2 mg/kg/day, vs control over 21 days, p<0.01", "value": "better cardiac function than the control group"}, {"measurement": "Fractional shortening (FS) / cardiac function", "setting": "[4]; 0.2 mg/kg/day, vs control, p<0.01", "value": "better function compared with the control group"}, {"measurement": "systolic dilation between Day 6 and Day 21", "setting": "[4]; 0.64 mg/kg/day", "value": "reversal in systolic dilation"}, {"measurement": "Ejection fraction (EF)", "setting": "[4]; [9]", "value": "improved EF"}, {"measurement": "Fractional shortening (FS) / cardiac function", "setting": "[4]; [9]", "value": "improved cardiac function"}, {"measurement": "diastolic dilation between Day 6 and 21", "setting": "[4]; 2 mg/kg/day", "value": "no diastolic dilation"}, {"measurement": "difference of cardiac function (EF) Days 27 vs 6 post infarction", "setting": "[4]; 2 mg/kg/day", "value": "improvement in cardiac function compared with Day 6, which was significantly illustrated"}, {"measurement": "efficacy compared with HBI-3802", "setting": "[4]; 2 mg/kg/day", "value": "greater efficacy compared with HBI-3802"}, {"measurement": "systolic dilation between Day 6 and Day 21", "setting": "[4]; 2 mg/kg/day", "value": "reversal in systolic dilation"}, {"measurement": "Ejection fraction (EF) after treatment", "setting": "[4]; 2 mg/kg/day gastric gavage 14 days from day 6 post MI, vs 0.64 and 0.2 mg/kg HBI-3808 and control", "value": "increased significantly"}, {"measurement": "cardiac function (conclusion)", "setting": "[4]; 2 mg/kg/day oral", "value": "improved both diastolic and systolic function"}, {"measurement": "cardiac function (EF) compared with 2 mg/kg HBI-3802 group", "setting": "[4]; [10]", "value": "improvement in cardiac function"}, {"measurement": "cardiac function (FS) compared with 2 mg/kg HBI-3802 group", "setting": "[4]; [10]", "value": "improvement in cardiac function"}, {"measurement": "Left ventricular end systolic dimension (LVESD)", "setting": "[4]; 2 mg/kg/day, vs 2 mg/kg HBI-3802, 0.64 and 0.2 mg/kg HBI-3808 and control, p<0.01", "value": "smaller"}, {"measurement": "Left ventricular end diastolic dimension (LVEDD)", "setting": "[4]; 2 mg/kg/day, vs 0.64, 0.2 mg/kg and control groups, p<0.01", "value": "smaller"}, {"measurement": "Fractional shortening (FS)", "setting": "[4]; 2 mg/kg/day, vs 0.64 and 0.2 mg/kg HBI-3808 and control", "value": "increased FS significantly"}, {"measurement": "improvement of cardiac function (conclusion)", "setting": "[4]; 0.64 or 0.2 mg/kg/day", "value": "lower-magnitude improvement of cardiac function"}, {"measurement": "dose response of cardiac function restoration", "setting": "[4]; 2, 0.64, 0.2 mg/kg/day", "value": "had a dose response"}]}
